From patent EP2896688A1 (Centre National de la Recherche Scientifique (CNRS), priority 2014, dated 2015)

What was measured:
embryonic pancreases = test: NAC given to pregnant rats in drinking water, analysis of embryonic pancreases; format: in vivo, Wistar Rats; settings: pregnant rats treated with 10 mM NAC from E13.5
Excerpt: Pregnant Wistar Rats were purchased from the Janvier Breeding center (CERJ Janvier, Le Genest Saint-Ile, France). The animals had free access to food pellets and water. Embryonic day 0.5 (E0.5) was considered the first day postcoïtum. Pregnant female were killed by CO2 asphyxiation according to the guidelines of the French Animal Care Committee.
N-Acetyl cystein (Sigma, Saint-Quentin Fallavier, France) treatment was initiated during embryonic life at E13.5 and given into drinking water to pregnant females.
For NGN3, revelation was performed using the vectastain ABC kit (Vector LAB, Peterborough, England).
To quantify the absolute number of insulin-expressing cells, all sections of each pancreatic rudiment were digitized. On every image, the surface area of insulin staining was quantified using ImageJ as described in (Heinis et al.).
(§1) To quantify the number of NGN3-positive cells, NGN3-positive cells were counted on all sections. Statistical significance was determined using Student's t test.
Female pregnant rats at 13.5 days postcoitus were treated with NAC, and the number of NGN3-positive cells was measured.

[1] = system: E13.5 rat embryonic pancreases; test: Number of NGN3-positive cells by immunohistochemistry in cultured embryonic pancreases; format: cell-based; settings: for number of NGN3-positive endocrine progenitor cells, decrease: 1 day, NAC at 10 µM or CCCP at 1 µM
Method: (§2) The embryos were harvested on E13.5. The dorsal pancreatic bud was dissected, as described previously (Attali et al., 2007). For the depletion of the mesenchyme, the digestive tract was incubated with 0.5 mg/ml collagenase A (Roche, Meyaln, France) at 37°c for 30 min, then washed several times with Hank's balanced solution (Invitrogen, Cergy-Pontoise, France) at 4°c, and the epithelium was mechanically separated from the mesenchyme using needles on 0.25% agar, 25% Hank's balanced solution and 75% RPMI gel (Life Technologies, Invitrogen) in a petri dish. Pancreatic rudiments (epithelium with mesenchyme) or epithelia were then cultured at the air-medium interface on Millicell culture plate inserts (Millipore, Molsheim, France) in Petri dishes containing RPMI 1640 (Invitrogen) supplemented with penicillin (100 U/ml), streptomycin ([…]), HEPES (10 mM), l-glutamine (2 mM), nonessential amino acids (1; Invitrogen, Cergy-Pontoise, France) and 10% heat-inactivated calf serum (Hyclone, South Logan, UT, USA) for one to 7 days. […] Glucose (Sigma, Saint-Quentin Fallavier, France) was used at 20 mM/l and the inhibitor of the ERK pathway (U0126, Cell Sinaling Technologies Ozyme, Saint-Quentin, France) at 10 µmol/l. Cultures were maintained at 37°C in humidified 95% air and 5% CO2.
Ad-CMV-GFP (ref 1060, Vector Biolabs, Philadelphia, PA, USA) and Ad-Catalase (ref 1475, Vector Biolabs) adenoviruses were used to infect the embryonic Wistar rat epithelia. Tissues were incubated with viral particles at the multiplicity of infection of 1000 for 4 h at 37°C in RPMI 1640 as described in (Heinis et al.2012). After infection, tissues were washed twice in HBSS and cultured at the air-medium interface.
Tissues were fixed in 10% formalin and processed for immunohistochemistry, as described previously (Attali et al., 2007). The following antibodies were used: mouse anti-insulin (1:2000; Sigma-Aldrich), rabbit anti-PDX1 (1:1,000), rabbit anti-amylase (Sigma-Aldrich, 1:300), mouse anti-E-cadherin (1:100, BD Biosciences, Le Pont de Claix, France), mouse anti-BrdU (1:2, Amersham, Velizy-Villacoublay, France), rabbit anti-NGN3 (1:1000) (Guillemain et al., 2007), rabbit anti-catalase (1:1000, Rockland Immunochemicals, Gilbertsville, PA USA). The fluorescent secondary antibodies were fluorescein-isothiocyanate anti-rabbit and Texas-red anti-mouse antibodies (1:200, Jackson Immunoresearch, Suffolk, England), and Atexa-fluor anti-rabbit antibody (1:400, Biogenex, Fremont, CA, USA). For NGN3, revelation was performed using the vectastain ABC kit (Vector LAB, Peterborough, England). Photographs were taken using a fluorescence microscope (Leitz DMRB; Leica) and digitized using a Hamamatsu (Middlesex, NJ, USA) C5810 cooled 3CCD camera.
as §1

[2] = system: E13.5 rat embryonic pancreases; test: Beta cell development (insulin staining surface) in cultured embryonic pancreases; format: cell-based; settings: for insulin staining surface: day 7, NAC at 10 µM or CCCP at 1 µM
Excerpt: The embryos were harvested on E13.5. […] On every image, the surface area of insulin staining was quantified using ImageJ as described in (Heinis et al.).

beta cells = settings: concentrations of H2O2 used
ERK1/2 = test: Western blot of ERK1/2 and MEK phosphorylation in cultured embryonic pancreases; format: cell-based, rat
Method: The embryos were harvested on E13.5. The dorsal pancreatic bud was dissected, as described previously (Attali et al., 2007). […] Glucose (Sigma, Saint-Quentin Fallavier, France) was used at 20 mM/l and the inhibitor of the ERK pathway (U0126, Cell Sinaling Technologies Ozyme, Saint-Quentin, France) at 10 µmol/l.
For Western blotting analysis, cells were lysed in Laemmli buffer. Proteins (20µg) were resolved by SDS/PAGE and electrophoretically transferred onto PVDF membrane (Bio-Rad, Hercules, CA, USA). After blocking with milk, membranes were probed with rat anti-p44/42 MAPK (Erk1/2), mouse anti-Phospho-p44/42 MAPK (Erk1/2) (Thr202/Tyr204), anti-Phospho-MEK (all from Cell Signaling Ozyme, ST Quentin en Yvelines, France) and mouse anti-actin (Sigma-Aldrich).Immunoreactive bands were visualized with the SuperSignal System (Pierce; Fisher Scientific, Illkirch, France).
The Mitogen Activated Protein Kinase (MAPK) ERK1/2 pathway, which was recently shown to be sensitive to ROS production in several cell types (Zhang et al., 2013) was examined. […] As a positive control, pancreases were also treated with 20 mM Glucose, an inducer of the ERK1/2 phosphorylation (Briaud et al., 2003). […] To further characterize ERK1/2-dependent effect of ROS on pancreas development, an ERK1/2 inhibitor was used (U0126). To validate the efficiency of the inhibitor, pancreatic explants were first cultured with glucose, in the presence or in the absence of U0126. Activation of ERK1/2 by glucose was abolished in the presence of U0126 (Figure 8A), confirming the efficiency of U0126.

[3] = system: Notch receptors 1 and 2, the Notch target Hes 1, the Notch ligands Jagged 1, Jagged 2, Delta-like 1; settings: one day, 50 µM H2O2
Method: as §2
Total RNA was purified using the Rneasy microkit (Qiagen, Courtaboeuf, France). […]

early PDX1+ progenitors = settings: 1 day of culture, 50 µM H2O2
Method: The embryos were harvested on E13.5. The dorsal pancreatic bud was dissected, as described previously (Attali et al., 2007). For the depletion of the mesenchyme, the digestive tract was incubated with 0.5 mg/ml collagenase A (Roche, Meyaln, France) at 37°c for 30 min, then washed several times with Hank's balanced solution (Invitrogen, Cergy-Pontoise, France) at 4°c, and the epithelium was mechanically separated from the mesenchyme using needles on 0.25% agar, 25% Hank's balanced solution and 75% RPMI gel (Life Technologies, Invitrogen) in a petri dish. Pancreatic rudiments (epithelium with mesenchyme) or epithelia were then cultured at the air-medium interface on Millicell culture plate inserts (Millipore, Molsheim, France) in Petri dishes containing RPMI 1640 (Invitrogen) supplemented with penicillin (100 U/ml), streptomycin ([…]), HEPES (10 mM), l-glutamine (2 mM), nonessential amino acids (1; Invitrogen, Cergy-Pontoise, France) and 10% heat-inactivated calf serum (Hyclone, South Logan, UT, USA) for one to 7 days. […]
Tissues were fixed in 10% formalin and processed for immunohistochemistry, as described previously (Attali et al., 2007). […] Photographs were taken using a fluorescence microscope (Leitz DMRB; Leica) and digitized using a Hamamatsu (Middlesex, NJ, USA) C5810 cooled 3CCD camera.
(§3) Statistical significance was determined using Student's t test.

Nrf2 = settings: pancreases treated with H2O2; data not shown
Method: Total RNA was purified using the Rneasy microkit (Qiagen, Courtaboeuf, France). The cDNA was generated using Superscript reagents (Invitrogen), and the real-time PCR was performed on a 7300 real-time PCR system (Applied Biosystem, Invitrogen) with an SYBR Green PCR master mix. The oligonucleotide sequences for RT-PCR are available on request.

[4] = system: E13.5 rat embryonic pancreases; settings: one day of culture, 50 µM H2O2
Method: as §2, with “CO2. […]” for “CO2.”
as §3

With CC(=O)N[C@@H](CS)C(=O)O [NAC, N-Acetyl cystein] as the compound, how does the “reduction of the beta cell mass” value (embryonic pancreases; at E20.5) read?
Its value is 2.5 fold.

What about the “number of NGN3-positive cells, decrease compared to controls” value (embryonic pancreases; embryonic pancreases analyzed at E20.5) of the same compound?
The value was 1.6 fold.

And the “number of NGN3-positive endocrine progenitor cells, decrease” value [1]?
Its value is about 2 fold.

What about the insulin staining surface [2] of the same compound?
Its insulin staining surface is “decrease”.

With OO [H2O2, hydrogen peroxide] as the compound, how does the “oxidative stress or damage in the resulting beta cells” value (beta cells) read?
The value was “did not produce detectable oxidative stress or damage”.

And the “activation of the ERK1/2 pathway” value (ERK1/2; 5 or 15 minutes, H2O2 50 µM or 20 mM Glucose)?
Its value is “induced”.

And the “time after addition at which ERK1/2 activation was observed” value (ERK1/2; H2O2 50 µM)?
The value was “five”.

And the “expression of Notch pathway genes vs controls” value [3]?
Its value is “No difference”.

What about the “rate of cell proliferation (BrdU incorporation) vs controls” value (early PDX1+ progenitors) of the same compound?
The value was “similar”.

What about the “Nrf2 RNA levels” value (Nrf2) of the same compound?
The value was “slight increase”.

What about the “rate of apoptosis vs controls” value [4] of the same compound?
Its value is “No difference”.

And the “number of NGN3 expressing cells” value ([1]; H2O2 at 50 µM, without U0126)?
Its value is “increased”.

And the “number of NGN3-positive cells, increase” value ([1]; day 1, 50 µM H2O2)?
The value was about 2 fold.

What about the “insulin surface, larger than controls” value ([2]; H2O2 50µM, analyzed seven days later) of the same compound?
The value was 2.6 fold.

How did the “number of NGN3-positive endocrine progenitor cells, decrease” value [1] turn out when N#CC(C#N)=NNc1cccc(Cl)c1 [CCCP, Carbonyl cyanide m-chlorophenyl hydrazone] was run?
Its value is about 2 fold.

And the insulin staining surface [2]?
The insulin staining surface was “decrease”.

N#CC(=C(/N)Sc1ccccc1N)/C(C#N)=C(\N)Sc1ccccc1N [U0126, reference compound] was tested. Which “activation of ERK1/2 by glucose in the presence of the inhibitor” value (ERK1/2; 20 mM Glucose, U0126 10 µmol/l) did it give?
Its value is “abolished”.

And the “activation of the ERK1/2 pathway by H2O2 in the presence of the inhibitor” value (ERK1/2; H2O2 50 µM, U0126 10 µmol/l)?
The value was “blunted”.

What about the “H2O2-induced increase of NGN3 expressing cells in the presence of the inhibitor” value ([1]; H2O2 at 50 µM with U0126) of the same compound?
Its value is “abrogated”.
